# Assay results published in patent publication US9556165B2 (priority 2012, dated 2017).
# Experiments:
# Format in all cases: cell-based
# strain 19 = assay: MIC determination, broth microdilution (CLSI)
# H. influenzae ATCC 49247 = assay: MIC determination, broth microdilution (CLSI); details: Haemophilus influenzae, ATCC49247, strain 13; read-out: strain 13 MIC
# E. coli J62 = assay: MIC determination, broth microdilution (CLSI); details: Escherichia coli, J62, strain 17; read-out: strain 17 MIC
# P. aeruginosa PAO1 = assay: MIC determination, broth microdilution (CLSI); details: Pseudomonas aeruginosa, PAO1, strain 6
# S. maltophilia ICB7569 = assay: MIC determination, broth microdilution (CLSI); details: Stenotrophomonas maltophilia, ICB7569, strain 10
# strain 20 = assay: MIC determination, broth microdilution (CLSI)
# B. fragilis 6688 = assay: MIC determination, broth microdilution (CLSI); details: Bacteroides fragilis, 6688, strain 15; read-out: strain 15 MIC
# A. baumannii ATCC15308 = assay: MIC determination, broth microdilution (CLSI); details: Acinetobacter baumannii, ATCC15308, strain 9
# E. coli J62-TEM-3 = assay: MIC determination, broth microdilution (CLSI); details: Escherichia coli, J62TEM3, read-out: strain 18 MIC, strain 18
# C. freundii K21/3034 = assay: MIC determination, broth microdilution (CLSI); details: Citrobacter freundii, K21/3034, strain 4
# [1] = system: P. aeruginosa 2297-con (AmpC derepressed); assay: MIC determination, broth microdilution (CLSI); details: Pseudomonas aeruginosa, read-out: strain 8 MIC, strain 8
# M. morganii 126/3048 = assay: MIC determination, broth microdilution (CLSI); details: Morganella morganii, 126/3048, strain 5
# K. pneumoniae 60 = assay: MIC determination, broth microdilution (CLSI); details: Klebsiella pneumoniae, 60, strain 2
# S. pneumoniae 113 = assay: MIC determination, broth microdilution (CLSI); details: Streptococcus pneumoniae, 113, strain 14; read-out: strain 14 MIC
# S. aureus 133 = assay: MIC determination, broth microdilution (CLSI); details: Staphylococcus aureus, 133, strain 11; read-out: strain 11 MIC
# strain 21 = assay: MIC determination, broth microdilution (CLSI)
# [2] = system: P. aeruginosa 2297 (AmpC wt); assay: MIC determination, broth microdilution (CLSI); details: Pseudomonas aeruginosa, strain 7
# M. catarrhalis ICB489 = assay: MIC determination, broth microdilution (CLSI); details: Moraxella catarrhalis, ICB489, strain 12
# E. coli ATCC25922 = assay: MIC determination, broth microdilution (CLSI); details: Escherichia coli, ATCC25922, strain 1
# E. cloacae 34654 = assay: MIC determination, broth microdilution (CLSI); details: Enterobacter cloacae, 34654, strain 3
# C. perfringens DSM756 = assay: microbe, parasite or virus in culture; details: Clostridium perfringens, DSM756, read-out: strain 16 MIC, strain 16
Compound,MIC (strain 19) [µg/mL],MIC (H. influenzae ATCC 49247) [µg/mL],MIC (E. coli J62) [µg/mL],MIC (P. aeruginosa PAO1) [µg/mL],MIC (S. maltophilia ICB7569) [µg/mL],MIC (strain 20) [µg/mL],MIC (B. fragilis 6688) [µg/mL],MIC (A. baumannii ATCC15308) [µg/mL],MIC (E. coli J62-TEM-3) [µg/mL],MIC (C. freundii K21/3034) [µg/mL],MIC [1] [µg/mL],MIC (M. morganii 126/3048) [µg/mL],MIC (K. pneumoniae 60) [µg/mL],MIC (S. pneumoniae 113) [µg/mL],MIC (S. aureus 133) [µg/mL],MIC (strain 21) [µg/mL],MIC [2] [µg/mL],MIC (M. catarrhalis ICB489) [µg/mL],MIC (E. coli ATCC25922) [µg/mL],MIC (E. cloacae 34654) [µg/mL],further results
"C[C@@H]1[C@H](NC(=O)/C(=N\OCCOc2ccc(C(=N)N)cc2)c2csc(N)n2)C(=O)N1S(=O)(=O)O [Example 11, (2R,3S)-3-{[(2Z)-2-(2-Amino-1,3-thiazol-4-yl)-2-{[2-(4-carbamimidoylphenoxy)ethoxy]imino}acetyl]amino}-2-methyl-4-oxoazetidine-1-sulfonic acid]",0.25,0.5,0.25,1,32,0.25,8,0.5,8,≤ 0.125,16,≤ 0.063,≤ 0.125,4,0.125,0.25,2,0.125,0.125,≤ 0.063,–
"C[C@H]1[C@H](NC(=O)/C(=N\OCCOc2ccc(C(=N)N)cc2)c2csc(N)n2)C(=O)N1OCS(=O)(=O)O [Example 12, {[(2S,3S)-3-{[(2Z)-2-(2-Amino-1,3-thiazol-4-yl)-2-{[2-(4-carbamimidoylphenoxy)ethoxy]imino}acetyl]amino}-2-methyl-4-oxoazetidin-1-yl]oxy}methanesulfonic acid]",0.5,≤ 0.063,0.5,4,8,0.25,8,4,8,0.25,–,0.25,0.25,32,0.125,0.25,8,0.25,0.5,0.5,MIC (C. perfringens DSM756): 16 µg/mL
"Cc1cc(OCCO/N=C(\C(=O)N[C@@H]2C(=O)N(OS(=O)(=O)O)C2(C)C)c2csc(N)n2)ccc1C(=N)N [Example 13, (2Z)-2-(2-Amino-1,3-thiazol-4-yl)-2-{[2-(4-carbamimidoyl-3-methylphenoxy)ethoxy]imino}-N-[(3S)-2,2-dimethyl-4-oxo-1-(sulfooxy)azetidin-3-yl]ethanamide]",0.5,≤ 0.063,0.5,8,–,0.5,4,1,32,0.25,8,0.5,1,4,≤ 0.063,0.5,16,0.125,0.5,1,MIC (C. perfringens DSM756): 2 µg/mL
"C[C@H]1[C@H](NC(=O)/C(=N\OC(C)(C)COc2ccc(C(=N)N)cc2)c2csc(N)n2)C(=O)N1S(=O)(=O)O [Example 18, (2S,3S)-3-{[(2Z)-2-(2-Amino-1,3-thiazol-4-yl)-2-({[1-(4-carbamimidoylphenoxy)-2-methylpropan-2-yl]oxy}imino)acetyl]amino}-2-methyl-4-oxoazetidine-1-sulfonic acid]",2,0.5,2,4,16,2,4,16,4,1,16,1,1,4,0.25,2,4,0.5,1,2,–
